Results published in BindingDB's records for doi:10.1016/s0028-3908(96)00054-8 (National Institute of Diabetes, Digestive and Kidney …, 1996).

What was measured:
[1] = biological target: Gamma-aminobutyric acid receptor subunit alpha-6 (Rattus norvegicus, UniProt P30191)
[2] = biological target: Gamma-aminobutyric acid receptor subunit alpha-4 (Rattus norvegicus, UniProt P28471)
Gamma-aminobutyric acid receptor subunit alpha-4, sequence (P28471 whole entry): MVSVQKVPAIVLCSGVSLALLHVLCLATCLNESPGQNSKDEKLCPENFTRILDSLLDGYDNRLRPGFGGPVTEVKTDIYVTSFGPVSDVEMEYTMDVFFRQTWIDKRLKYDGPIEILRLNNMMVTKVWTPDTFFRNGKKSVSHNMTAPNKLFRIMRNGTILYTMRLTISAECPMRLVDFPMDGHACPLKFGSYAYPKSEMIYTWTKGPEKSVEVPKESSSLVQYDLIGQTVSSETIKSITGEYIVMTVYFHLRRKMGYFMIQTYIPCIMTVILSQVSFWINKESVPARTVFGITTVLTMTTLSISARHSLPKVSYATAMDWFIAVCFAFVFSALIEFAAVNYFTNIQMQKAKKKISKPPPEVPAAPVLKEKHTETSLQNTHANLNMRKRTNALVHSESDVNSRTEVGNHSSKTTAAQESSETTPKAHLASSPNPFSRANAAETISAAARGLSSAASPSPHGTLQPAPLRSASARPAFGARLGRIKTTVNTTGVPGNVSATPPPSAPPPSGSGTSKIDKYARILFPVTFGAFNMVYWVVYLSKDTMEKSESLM

Gamma-aminobutyric acid receptor subunit alpha-6, sequence (P30191 whole entry): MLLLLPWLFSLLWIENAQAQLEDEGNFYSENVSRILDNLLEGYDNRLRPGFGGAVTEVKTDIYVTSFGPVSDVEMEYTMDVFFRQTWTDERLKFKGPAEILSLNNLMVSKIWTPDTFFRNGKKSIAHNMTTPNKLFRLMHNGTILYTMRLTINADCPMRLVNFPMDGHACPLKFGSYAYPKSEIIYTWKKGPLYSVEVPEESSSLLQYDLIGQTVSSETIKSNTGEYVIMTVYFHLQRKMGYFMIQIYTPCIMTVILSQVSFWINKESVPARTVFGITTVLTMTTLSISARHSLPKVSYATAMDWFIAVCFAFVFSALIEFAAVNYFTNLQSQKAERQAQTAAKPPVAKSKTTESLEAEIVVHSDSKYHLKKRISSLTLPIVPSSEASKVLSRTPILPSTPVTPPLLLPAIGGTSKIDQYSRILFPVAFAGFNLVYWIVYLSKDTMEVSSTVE

| SMILES | Ki [1] [nM] | Ki [2] [nM] |
| --- | --- | --- |
| O=c1c2cnc3ccccc3c2[nH]n1-c1ccccc1 | 34.3 | 8 |
| CN1Cc2c(C(=O)OC(C)(C)C)ncn2-c2ccc(Cl)cc2C1=O | 8.2 | 9.5 |
| CN1Cc2c(C(=O)OC(C)(C)C)ncn2-c2ccc(N=[N+]=[N-])cc2C1=O | 5.3 | 5.2 |
| COC(=O)c1cc2c(cn1)[nH]c1ccccc12 | 2020 | 436 |
| CCOC(=O)c1cc2c(cn1)[nH]c1ccccc12 | 2620 | – |
| CC(C)(C)OC(=O)c1cc2c(cn1)[nH]c1ccccc12 | 4750 | 897 |
| O=c1c2cnc3ccccc3c2[nH]n1-c1ccc(Cl)cc1 | 500 | 214 |
| COc1ccc(-n2[nH]c3c(cnc4cc(OC)ccc43)c2=O)cc1 | 23 | 11.6 |
| COc1ccc2ncc3c(=O)n(-c4ccccc4)[nH]c3c2c1 | 74.5 | 22.5 |
| COc1ccc(-n2[nH]c3c(cnc4ccccc43)c2=O)cc1 [2-(4-Methoxy-phenyl)-2,5-dihydro-pyrazolo[4,3-c]quinolin-3-one (CGS 9895)] | 38.4 | 6.8 |
| CCc1ccc2c(c1)C(=O)N(C)Cc1c(C(=O)OC(C)(C)C)ncn1-2 [DM 286] | 13.5 | 10 |
| CN1Cc2c(C(=O)OC(C)(C)C)ncn2-c2ccc(OCc3ccccc3)cc2C1=O [DM-236] | 1590 | 188 |
| CCc1c(C(=O)OC)ncc2[nH]c3cc(OC)c(OC)cc3c12 [NSC_104999] | 121 | 38.5 |
| CCOC(=O)c1ncc2[nH]c3ccc(OCc4ccccc4)cc3c2c1COC [NSC_121926] | > 10000 | > 10000 |
| CCOC(=O)c1ncc2[nH]c3cccc(OCc4ccccc4)c3c2c1COC [NSC_123700] | 1200 | 573 |
| CCOC(=O)c1ncn2c1CN(C)C(=O)c1cc(N=[N+]=[N-])ccc1-2 [RO-154513] | 5.3 | – |
| CN1Cc2c(C(=O)OC(C)(C)C)ncn2-c2ccsc2C1=O [Ro-19-4603] | 3.6 | 6 |
| CCOC(=O)c1ncn2c1CN(C)C(=O)c1cc(F)ccc1-2 [ethyl 12-fluoro-8-methyl-9-oxo-2,4,8-triazatricyclo[8.4.0.0^{2,6}]tetradeca-1(14),3,5,10,12-pentaene-5-carboxylate] | – | 118 |
